Assay results: patent US8846698B2, “Pyrrolo[2,3-d]pyrimidine tropomysin-related kinase inhibitors” (Pfizer Limited, priority 2011, dated 2014)
Read-outs that look alike come from different tables or passages of the source.

Legend:
TRKA [1] = biological target: T1, TRKA (Homo sapiens (Human), UniProt P04629); assay: Cell based DiscoveRx PathHunter antagonist assay, TRKA cell line; settings: read-out: TrkA cell potency
Target sequence in this assay (P04629 33-796): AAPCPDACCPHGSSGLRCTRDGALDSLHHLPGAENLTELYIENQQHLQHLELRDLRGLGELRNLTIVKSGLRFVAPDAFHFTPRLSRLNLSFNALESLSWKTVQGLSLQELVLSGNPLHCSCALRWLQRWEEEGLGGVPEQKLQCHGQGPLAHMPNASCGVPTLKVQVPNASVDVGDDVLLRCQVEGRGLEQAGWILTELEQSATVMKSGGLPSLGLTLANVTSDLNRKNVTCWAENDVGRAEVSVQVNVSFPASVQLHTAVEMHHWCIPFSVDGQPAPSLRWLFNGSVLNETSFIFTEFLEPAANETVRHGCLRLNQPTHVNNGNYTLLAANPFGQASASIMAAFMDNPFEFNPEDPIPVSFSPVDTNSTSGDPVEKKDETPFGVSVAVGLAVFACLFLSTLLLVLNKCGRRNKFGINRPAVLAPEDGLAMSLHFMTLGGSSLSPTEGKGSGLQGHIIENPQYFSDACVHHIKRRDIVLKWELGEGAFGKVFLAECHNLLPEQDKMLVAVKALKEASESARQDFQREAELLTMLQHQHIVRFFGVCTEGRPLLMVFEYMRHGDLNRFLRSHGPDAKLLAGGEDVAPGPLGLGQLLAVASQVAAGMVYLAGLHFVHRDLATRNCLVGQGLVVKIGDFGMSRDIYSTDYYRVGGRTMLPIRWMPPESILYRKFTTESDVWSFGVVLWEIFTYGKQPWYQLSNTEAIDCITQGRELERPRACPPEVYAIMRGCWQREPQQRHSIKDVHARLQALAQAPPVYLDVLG

TRKA [2] = biological target: T1, TRKA; assay: Isolated TRK enzyme assay (HTRF KinEASE-TK), TRKA; format: biochemical; settings: isolated TRKA enzyme; read-out: TrkA enzyme potency
Target sequence in this assay (P04629 441-796): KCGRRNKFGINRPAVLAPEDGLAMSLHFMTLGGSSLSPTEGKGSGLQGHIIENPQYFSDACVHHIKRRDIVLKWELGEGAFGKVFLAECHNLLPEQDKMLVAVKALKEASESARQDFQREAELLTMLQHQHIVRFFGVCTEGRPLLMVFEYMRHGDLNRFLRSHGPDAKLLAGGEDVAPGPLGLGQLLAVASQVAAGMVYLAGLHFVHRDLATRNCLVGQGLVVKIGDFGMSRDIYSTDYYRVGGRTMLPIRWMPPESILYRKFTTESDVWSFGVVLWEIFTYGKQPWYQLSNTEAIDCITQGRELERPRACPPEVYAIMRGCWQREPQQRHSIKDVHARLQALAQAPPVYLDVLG

MDR1 = MDR1 (Homo sapiens (Human), UniProt P08183); assay: MDCK-MDR1 assay (in vitro brain penetration); format: in vitro ADME; settings: for Papp B→A / Papp A→B: human; for Papp B→A: read-out: MDCK MDR1 Papp BA; for Papp A→B / MDCK MDR1 Papp AB: MDCK-MDR1, A to B; for Papp A→B: read-out: MDCK MDR1 Papp AB
Source text: MDCK-MDR1: MDCK-MDR1 data were collected according to the method described in “Are MDCK Cells Transfected with the Human MDR1 Gene a Good Model of the Human Intestinal Mucosa?”
http://www.springerlink.com/content/qfhqlqbr4fnp3 khf/fulltext.pdf

TRKB [3] = biological target: T2, TRKB (Homo sapiens (Human), UniProt Q16620); assay: cell-based; settings: TrkB cell potency, TRKB PathHunter cell line
TRKC = TRKC (Homo sapiens (Human), UniProt Q16288); assay: Cell based DiscoveRx PathHunter antagonist assay, TRKC cell line; settings: read-out: TrkC cell potency
Experimental: After the Detection Reagent addition, plates are covered and incubated at room temperature for 60 minutes. […] Test compound data are expressed as percentage inhibition defined by HPE and ZPE values for each plate. Percentage inhibition in the presence of test compound is plotted against compound concentration on a log scale to determine an IC50 from the resultant sigmoid curve. Cell Based Assays were carried out using Cell lines from DiscoveRx utilising their PathHunter technology and reagents in an antagonist assay:
The assays are based upon DiscoveRx's proprietary Enzyme Fragment Complementation (EFC) technology. In the case of the TRK cell lines, the enzyme acceptor (EA) protein is fused to a SH2 protein and the TRK receptor of interest has been tagged with a Prolink tag.
Upon neurotrophin binding, the TRK receptor becomes phosphorylated, and the tagged SH2 protein binds.
This means that the IC50 is a good measure of affinity and should be unaffected by concentration neurotrophin stimulant.
Cryopreserved PathHunter cells are used from either in-house produced batches or bulk batches bought directly from DiscoveRx. Cryopreserved cells are resuscitated, spun 1000 rpm for 4 min to remove freezing media, and resuspended in MEM+0.5% horse serum (both Invitrogen) to 5e^5 cells/ml. The cells are then plated using a Multidrop into Greiner white tissue culture treated plates at 20 ul/well and incubated for 24 h at 37° C., 5% CO2, high humidity. On the day of the assay, the cell plates are allowed to cool to room temperature for 30 min prior to the assay.
Plates containing 1 ul of serially diluted compound, standard and HPE/ZPE are diluted 1/66 in assay buffer (PBS minus Ca^2+, minus Mg^2+ with 0.05% pluronic F127) using a Wellmate. […] The plates are left at room temperature for a further 2 hours before addition of 10 ul of the DiscoveRx PathHunter detection reagent (made up by adding 1 part Galacton Star, 5 parts Emerald II and 19 parts Cell Assay Buffer as per the manufacturer's instructions).
After reagent addition, plates are covered and incubated at room temperature for 60 minutes. Luminescence signal is read using an Envision. Test compound data are expressed as percentage inhibition defined by HPE and ZPE values for each plate. Percentage inhibition in the presence of test compound is plotted against compound concentration on a log scale to determine an […] from the resultant sigmoid curve.

TRKB [4] = biological target: T2, TRKB; assay: biochemical
[5] = isolated TRKB enzyme, read-out: TrkB enzyme potency

Chain of TRKC (Q16288 32-839): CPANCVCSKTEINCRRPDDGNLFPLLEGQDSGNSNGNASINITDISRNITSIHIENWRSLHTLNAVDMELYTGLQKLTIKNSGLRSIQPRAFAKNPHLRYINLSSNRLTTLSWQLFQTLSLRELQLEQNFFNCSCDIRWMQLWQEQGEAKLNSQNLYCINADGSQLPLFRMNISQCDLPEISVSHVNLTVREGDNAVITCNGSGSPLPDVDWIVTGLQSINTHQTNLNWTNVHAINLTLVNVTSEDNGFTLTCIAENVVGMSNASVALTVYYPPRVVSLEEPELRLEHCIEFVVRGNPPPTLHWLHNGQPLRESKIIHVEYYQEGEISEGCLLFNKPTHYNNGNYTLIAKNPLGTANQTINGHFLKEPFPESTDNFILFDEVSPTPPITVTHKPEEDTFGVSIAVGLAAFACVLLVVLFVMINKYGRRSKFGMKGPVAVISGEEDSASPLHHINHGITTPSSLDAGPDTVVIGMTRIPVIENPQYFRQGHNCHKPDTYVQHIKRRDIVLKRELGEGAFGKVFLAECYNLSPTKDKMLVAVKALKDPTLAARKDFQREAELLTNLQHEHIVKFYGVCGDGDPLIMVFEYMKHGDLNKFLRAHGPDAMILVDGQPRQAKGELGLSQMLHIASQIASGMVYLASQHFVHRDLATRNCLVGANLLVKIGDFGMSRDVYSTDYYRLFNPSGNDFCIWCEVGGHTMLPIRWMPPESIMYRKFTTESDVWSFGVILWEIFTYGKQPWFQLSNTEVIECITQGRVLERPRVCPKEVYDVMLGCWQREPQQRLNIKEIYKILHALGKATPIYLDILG
T2 sequence (Q16620 32-822 limits assumed): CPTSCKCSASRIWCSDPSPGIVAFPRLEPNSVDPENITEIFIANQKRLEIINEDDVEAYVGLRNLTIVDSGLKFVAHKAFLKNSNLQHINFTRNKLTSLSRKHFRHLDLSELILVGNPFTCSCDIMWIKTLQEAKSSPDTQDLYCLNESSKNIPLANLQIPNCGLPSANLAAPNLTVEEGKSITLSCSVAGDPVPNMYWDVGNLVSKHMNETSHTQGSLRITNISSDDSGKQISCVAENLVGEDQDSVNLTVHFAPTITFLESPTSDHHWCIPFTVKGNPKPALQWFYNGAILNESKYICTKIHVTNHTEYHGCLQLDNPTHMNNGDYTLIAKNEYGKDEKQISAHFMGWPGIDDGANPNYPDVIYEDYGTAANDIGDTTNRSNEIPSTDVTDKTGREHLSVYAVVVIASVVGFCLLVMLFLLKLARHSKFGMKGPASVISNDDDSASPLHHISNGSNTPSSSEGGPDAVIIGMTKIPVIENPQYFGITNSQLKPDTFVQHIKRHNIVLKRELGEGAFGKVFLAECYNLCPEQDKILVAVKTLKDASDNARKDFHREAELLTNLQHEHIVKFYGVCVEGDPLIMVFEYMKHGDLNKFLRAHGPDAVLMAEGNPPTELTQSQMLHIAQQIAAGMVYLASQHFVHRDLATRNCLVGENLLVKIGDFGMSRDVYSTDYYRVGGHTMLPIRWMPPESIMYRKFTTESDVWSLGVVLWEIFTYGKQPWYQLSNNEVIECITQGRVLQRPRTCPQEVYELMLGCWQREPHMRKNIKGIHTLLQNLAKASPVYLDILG
Chain of MDR1 (P08183 whole entry): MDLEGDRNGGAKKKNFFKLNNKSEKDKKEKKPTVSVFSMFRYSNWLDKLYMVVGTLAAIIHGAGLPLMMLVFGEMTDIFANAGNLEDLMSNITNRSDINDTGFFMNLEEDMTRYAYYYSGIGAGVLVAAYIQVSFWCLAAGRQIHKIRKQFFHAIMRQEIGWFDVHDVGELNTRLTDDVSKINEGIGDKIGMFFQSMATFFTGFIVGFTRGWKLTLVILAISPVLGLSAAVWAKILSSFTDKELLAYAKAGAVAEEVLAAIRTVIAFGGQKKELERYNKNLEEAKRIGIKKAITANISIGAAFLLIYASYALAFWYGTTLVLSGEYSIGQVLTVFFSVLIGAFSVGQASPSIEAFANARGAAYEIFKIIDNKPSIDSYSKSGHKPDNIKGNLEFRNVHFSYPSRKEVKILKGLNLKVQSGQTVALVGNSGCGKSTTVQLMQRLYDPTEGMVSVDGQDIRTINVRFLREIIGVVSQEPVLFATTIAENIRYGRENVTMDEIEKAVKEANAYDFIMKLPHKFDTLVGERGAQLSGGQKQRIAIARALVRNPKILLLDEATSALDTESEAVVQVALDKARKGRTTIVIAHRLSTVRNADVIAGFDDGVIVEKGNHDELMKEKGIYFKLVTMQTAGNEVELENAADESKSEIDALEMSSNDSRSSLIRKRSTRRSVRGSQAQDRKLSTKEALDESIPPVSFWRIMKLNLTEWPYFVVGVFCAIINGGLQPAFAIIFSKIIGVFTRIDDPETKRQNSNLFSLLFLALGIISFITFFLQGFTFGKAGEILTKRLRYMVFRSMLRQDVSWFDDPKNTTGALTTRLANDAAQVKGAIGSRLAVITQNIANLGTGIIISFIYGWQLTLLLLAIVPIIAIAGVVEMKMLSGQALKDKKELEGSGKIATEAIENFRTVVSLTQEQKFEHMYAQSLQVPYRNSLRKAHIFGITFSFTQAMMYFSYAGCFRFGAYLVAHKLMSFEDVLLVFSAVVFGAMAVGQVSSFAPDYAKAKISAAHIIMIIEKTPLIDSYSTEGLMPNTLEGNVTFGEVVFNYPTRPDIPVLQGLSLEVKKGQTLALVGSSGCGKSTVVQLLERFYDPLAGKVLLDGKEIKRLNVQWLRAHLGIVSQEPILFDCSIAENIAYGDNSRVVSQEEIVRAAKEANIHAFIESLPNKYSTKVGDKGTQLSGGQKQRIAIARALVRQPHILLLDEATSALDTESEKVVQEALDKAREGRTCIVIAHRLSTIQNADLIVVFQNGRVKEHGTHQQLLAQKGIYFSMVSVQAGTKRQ

IC50 (TRKA [1]) | IC50 (TRKA [2]) | Papp B→A (MDR1; MDCK-MDR1, MDCK-MDR1, B to A) | Papp A→B (MDR1) | IC50 (TRKB [3]) | IC50 (TRKC) | IC50 (TRKB [4]; [5]) | MDCK MDR1 Papp AB (MDR1) | MDCK MDR1 Papp BA (MDR1; MDCK-MDR1, B to A) | Papp B→A (MDR1; MDCK-MDR1, B to A) | IC50 (TRKB [4]; TrkB enzyme potency) | SMILES
11 nM | 4.5 nM | 12 ×10⁻⁶ cm/s | < 1 ×10⁻⁶ cm/s | 13 nM | 13 nM | 303 nM | – | – | – | – | CC(CO)n1cc(C(=O)c2cncc(NC(=O)Cc3ccc(C(F)(F)F)cc3)c2)c2cnc(N)nc21 (single isomer, unassigned) [Example 36, N-(5-{[2-amino-7-(2-hydroxy-1-methylethyl)-7H-pyrrolo[2,3-d]pyrimidin-5-yl]carbonyl}pyridin-3-yl)-2-[4-(trifluoromethyl)phenyl]acetamide]
44 nM | 3.8 nM | – | – | 27 nM | 13 nM | 191 nM | <1 ×10⁻⁶ cm/s | 9.5 ×10⁻⁶ cm/s | – | – | CC(CO)n1cc(C(=O)c2cncc(NC(=O)Cc3ccc(Cl)cc3)c2)c2cnc(N)nc21 (single isomer, unassigned) [Example 42, N-(5-{[2-amino-7-(2-hydroxy-1-methylethyl)-7H-pyrrolo[2,3-d]pyrimidin-5-yl]carbonyl}pyridin-3-yl)-2-(4-chlorophenyl)acetamide]
17 nM | 5.1 nM | – | – | 19 nM | 11 nM | 136 nM | <1 ×10⁻⁶ cm/s | 13 ×10⁻⁶ cm/s | – | – | CC(CO)n1cc(C(=O)c2cncc(NC(=O)Cc3ccc(C(F)(F)F)cc3)c2)c2cnc(N)nc21 (single isomer, unassigned) [Example 43, N-(5-{[2-amino-7-(2-hydroxy-1-methylethyl)-7H-pyrrolo[2,3-d]pyrimidin-5-yl]carbonyl}pyridin-3-yl)-2-[4-(trifluoromethyl)phenyl]acetamide]
5.3 nM | 8.4 nM | – | < 1 ×10⁻⁶ cm/s | 3.9 nM | 1.1 nM | – | – | – | 15 ×10⁻⁶ cm/s | 113 nM | CC(C)(C)n1cc(C(=O)c2cncc(NC(=O)Cn3cc(C(F)(F)F)nn3)c2)c2cncnc21 [Example 2, N-{5-[(7-tert-butyl-7H-pyrrolo[2,3-d]pyrimidin-5-yl)carbonyl]pyridin-3-yl}-2-[4-(trifluoromethyl)-1H-1,2,3-triazol-1-yl]acetamide]
3.5 nM | 2.6 nM | 14 ×10⁻⁶ cm/s | 1.5 ×10⁻⁶ cm/s | 3.6 nM | 2 nM | 73 nM | – | – | – | – | CC(C)(C)n1cc(C(=O)c2cncc(NC(=O)Cn3ccc(C(F)(F)F)n3)c2)c2cncnc21 [Example 5, N-{5-[(7-tert-butyl-7H-pyrrolo[2,3-d]pyrimidin-5-yl)carbonyl]pyridin-3-yl}-2-[3-(trifluoromethyl)-1H-pyrazol-1-yl]acetamide]
1.9 nM | 2.4 nM | – | 1.8 ×10⁻⁶ cm/s | 2 nM | 2.3 nM | – | – | – | 15 ×10⁻⁶ cm/s | 15 nM | CC(C)(C)n1cc(C(=O)c2cncc(NC(=O)Cn3cc(C(F)(F)F)cn3)c2)c2cncnc21 [Example 8, N-{5-[(7-tert-butyl-7H-pyrrolo[2,3-d]pyrimidin-5-yl)carbonyl]pyridin-3-yl}-2-[4-(trifluoromethyl)-1H-pyrazol-1-yl]acetamide]
30 nM | 5.7 nM | 14 ×10⁻⁶ cm/s | < 1 ×10⁻⁶ cm/s | 18 nM | 18 nM | 78 nM | – | – | – | – | Cc1cc(C(F)(F)F)nn1CC(=O)Nc1cncc(C(=O)c2cn([C@@H](C)CO)c3ncncc23)c1 [Example 10, N-[5-({7-[(1S)-2-Hydroxy-1-methylethyl]-7H-pyrrolo[2,3-d]pyrimidin-5-yl}carbonyl)pyridin-3-yl]-2-[5-methyl-3-(trifluoromethyl)-1H-pyrazol-1-yl]acetamide]
17 nM | 3.3 nM | – | < 1 ×10⁻⁶ cm/s | 11 nM | 6.6 nM | – | – | – | 23 ×10⁻⁶ cm/s | 197 nM | C[C@@H](CO)n1cc(C(=O)c2cncc(NC(=O)Cc3ccc(Cl)cc3)c2)c2cncnc21 [Example 11, 2-(4-chlorophenyl)-N-[5-({7-[(1S)-2-hydroxy-1-methylethyl]-7H-pyrrolo[2,3-d]pyrimidin-5-yl}carbonyl)pyridin-3-yl]acetamide]
41 nM | 13 nM | 21 ×10⁻⁶ cm/s | < 1 ×10⁻⁶ cm/s | 15 nM | 4.8 nM | 773 nM | – | – | – | – | C[C@@H](CO)n1cc(C(=O)c2cncc(NC(=O)Cc3ccc(Cl)cn3)c2)c2cncnc21 [Example 14, 2-(5-chloropyridin-2-yl)-N-[5-({7-[(1S)-2-hydroxy-1-methylethyl]-7H-pyrrolo[2,3-d]pyrimidin-5-yl}carbonyl)pyridin-3-yl]acetamide]
37 nM | 125 nM | – | < 1 ×10⁻⁶ cm/s | 27 nM | 8.9 nM | – | – | – | 10 ×10⁻⁶ cm/s | 427 nM | C[C@H](CO)n1cc(C(=O)c2cncc(NC(=O)Cc3ccc(Cl)cc3)c2)c2cncnc21 [Example 24, 2-(4-chlorophenyl)-N-[5-({7-[(1R)-2-hydroxy-1-methylethyl]-7H-pyrrolo[2,3-d]pyrimidin-5-yl}carbonyl)pyridin-3-yl]acetamide]
3.9 nM | 2.8 nM | 17 ×10⁻⁶ cm/s | < 1 ×10⁻⁶ cm/s | 5.4 nM | 3.2 nM | 55 nM | – | – | – | – | CC(C)(CO)n1cc(C(=O)c2cncc(NC(=O)Cc3ccc(C(F)(F)F)cc3)c2)c2cncnc21 [Example 27, N-(5-{[7-(2-hydroxy-1,1-dimethylethyl)-7H-pyrrolo[2,3-d]pyrimidin-5-yl]carbonyl}pyridin-3-yl)-2-[4-(trifluoromethyl)phenyl]acetamide]
87 nM | 9 nM | 3.4 ×10⁻⁶ cm/s | < 1 ×10⁻⁶ cm/s | 59 nM | 18 nM | 423 nM | – | – | – | – | CC(C)(CO)n1cc(C(=O)c2cncc(NC(=O)Cn3cc(C(F)(F)F)nn3)c2)c2cncnc21 [Example 32, N-(5-{[7-(2-hydroxy-1,1-dimethylethyl)-7H-pyrrolo[2,3-d]pyrimidin-5-yl]carbonyl}pyridin-3-yl)-2-[4-(trifluoromethyl)-1H-1,2,3-triazol-1-yl]acetamide]
2.9 nM | 1.7 nM | 12 ×10⁻⁶ cm/s | < 1 ×10⁻⁶ cm/s | 3.6 nM | 2.5 nM | 40 nM | – | – | – | – | CC(C)(CO)n1cc(C(=O)c2cncc(NC(=O)Cc3ccc(C(F)(F)F)cc3)c2)c2cnc(N)nc21 [Example 48, N-(5-{[2-amino-7-(2-hydroxy-1,1-dimethylethyl)-7H-pyrrolo[2,3-d]pyrimidin-5-yl]carbonyl}pyridin-3-yl)-2-[4-(trifluoromethyl)phenyl]acetamide]
35 nM | 7.8 nM | 11 ×10⁻⁶ cm/s | < 1 ×10⁻⁶ cm/s | 7.5 nM | 9.9 nM | 198 nM | – | – | – | – | CC(C)(CO)n1cc(C(=O)c2cncc(NC(=O)Cc3ccc(F)cn3)c2)c2cnc(N)nc21 [Example 51, N-(5-{[2-amino-7-(2-hydroxy-1,1-dimethylethyl)-7H-pyrrolo[2,3-d]pyrimidin-5-yl]carbonyl}pyridin-3-yl)-2-(5-fluoropyridin-2-yl)acetamide]
